Experiments:
Assay type in all cases: in vivo
barnyard grass (Ec) [1] = experiment: Test Example 3: herbicidal effects by foliage treatment in upland field; design: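 0-5 growth inhibition grade; 5 = over 90%; 4 = 70-90%; 3 = 50-70%; 2 = 30-50%; 1 = 10-30%; 0 = under 10%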; conditions: dose 100 g active ingredient per 10 ares, examined on the 14th day after treatment
Experimental: In a 80 cm^2 plastic pot, upland soil was filled, and seeds of barnyard grass (Ec) and green foxtail (Se) were sown and cultured in a green house for 2 weeks. Then, a wettable powder prepared in accordance with Formulation Example 1 was diluted with water and applied to the entire foliage from above the plants by means of a small size spray at a rate of 100 l per 10 ares so that the dose of the active ingredient would be 100 g per 10 ares. Thereafter, cultivation was carried out in a green house, and on the 14th day after the treatment, the herbicidal effects were examined in accordance with the standards of Table 44.

monochoria (Mo) [2] = experiment: Test Example 1: herbicidal effects by flooded paddy field treatment; design: herbicidal effects, Mo (monochoria):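 0-5 growth inhibition grade; 5 = over 90%; 4 = 70-90%; 3 = 50-70%; 2 = 30-50%; 1 = 10-30%; 0 = under 10%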; conditions: for herbicidal effects, Mo (monochoria): dose 100 g active ingredient per 10 ares, examined on the 21st day after treatment, standards of Table 44;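 as to Herbicidal effect index, Mo: 0-5 growth inhibition grade; 5 = over 90%; 4 = 70-90%; 3 = 50-70%; 2 = 30-50%; 1 = 10-30%; 0 = under 10%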
Summary of the method: (§1)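 Herbicidal effect scored 21 days post-treatment after greenhouse cultivation. Treatment was applied dropwise to the water surface, one day after sowing, as a diluted wettable powder (100 g a.i./10 ares). Pots held puddled paddy soil under 3 cm water.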

barnyard grass (Eo) [3] = experiment: as above; design: herbicidal effects, Eo (barnyard grass):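 0-5 growth inhibition grade; 5 = over 90%; 4 = 70-90%; 3 = 50-70%; 2 = 30-50%; 1 = 10-30%; 0 = under 10%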; conditions: for herbicidal effects, Eo (barnyard grass): dose 100 g active ingredient per 10 ares, examined on the 21st day after treatment, standards of Table 44
Summary of the method: as §1

monochoria (Mo) [4] = experiment: Test Example 4: selectivity for a crop plant by flooded paddy field treatment; design: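 0-5 growth inhibition grade; 5 = over 90%; 4 = 70-90%; 3 = 50-70%; 2 = 30-50%; 1 = 10-30%; 0 = under 10%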; conditions: monochoria, dose 25 gai/10a, 21st day after treatment, index per Table 44
Summary of the method: (§2)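 Flooded-paddy treatment: the wettable powder formulation, diluted in water, was applied dropwise to 3 cm floodwater at 25 g a.i./10 ares one day after sowing barnyard grass and monochoria and transplanting rice at the second leaf stage. Greenhouse grown; herbicidal effect rated against set standards on day 21.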

rice (Or) = experiment: as above; design: scale not given here; conditions: rice transplanted at second leaf stage, dose 25 gai/10a, 21st day after treatment, index per Table 44
Summary of the method: as §2

barnyard grass (Eo) [5] = experiment: as above; design: scale not given here; conditions: barnyard grass, dose 25 gai/10a, 21st day after treatment, index per Table 44
Summary of the method: as §2

barnyard grass (Ec) [6] = experiment: Test Example 2: herbicidal effects by upland soil treatment; design: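 0-5 growth inhibition grade; 5 = over 90%; 4 = 70-90%; 3 = 50-70%; 2 = 30-50%; 1 = 10-30%; 0 = under 10%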; conditions: dose 100 g active ingredient per 10 ares, examined on the 21st day after treatment
Summary of the method: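 Pre-emergence test: barnyard grass and green foxtail sown in upland soil, then soil surface sprayed with wettable-powder formulation at 100 g active ingredient per 10 ares (100 l per 10 ares). Grown in greenhouse; herbicidal effect scored on a rating scale 21 days after treatment.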

[7] = dose 100 gai/10a, examined on 21st day after treatment, index 0-5 per Table 44
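For Herbicidal effect index, Eo in this document: 0-5 growth inhibition grade; 5 = over 90%; 4 = 70-90%; 3 = 50-70%; 2 = 30-50%; 1 = 10-30%; 0 = under 10%.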

| SMILES | Ec (herbicidal effects, index) (barnyard grass (Ec) [1]) | Herbicidal effect index, Mo (monochoria (Mo) [2]; [7]) | Herbicidal effect index, Eo (barnyard grass (Eo) [3]; [7]) | herbicidal effects, Mo (monochoria) (monochoria (Mo) [2]) | Mo (herbicidal effect index) (monochoria (Mo) [4]) | Or (herbicidal effect index on crop) (rice (Or)) | Eo (herbicidal effect index) (barnyard grass (Eo) [5]) | Ec (herbicidal effects, index) (barnyard grass (Ec) [6]) | herbicidal effects, Eo (barnyard grass) (barnyard grass (Eo) [3]) |
| --- | --- | --- | --- | --- | --- | --- | --- | --- | --- |
| CCOc1ncncc1C(C(C)C)N(C)C(=O)Cc1ccc(Cl)cc1 (racemic) [1-661] | 5 | – | – | – | – | – | – | – | – |
| CCCC(c1cncnc1C(F)(F)F)N(C)C(=O)Cc1ccccc1 (racemic) [Compound 1-111] | 4 | 4 | 5 | – | – | – | – | – | – |
| C#CCN(C(=O)Cc1ccc(C)cc1)C(c1cncnc1C(C)C)C(C)C (racemic) [1-624] | – | – | – | 5 | 5 | 1 | 5 | 5 | 5 |
| CCN(C(=O)Cc1ccsc1)C(c1cncnc1C(F)F)C(C)C (racemic) [2-8] | – | – | – | 5 | 5 | 0 | 5 | 5 | 5 |
| CCc1ncncc1C(N(C)C(=O)Cc1ccc(C)cc1)C(C)(C)C (racemic) [1-567] | – | – | – | 5 | 5 | 1 | 5 | 5 | 5 |
| O=C(Cc1ccccc1)NC(c1cncnc1C(F)(F)Cl)C1CC1 (racemic) [Compound 1-1] | 4 | – | – | – | – | – | – | – | – |
| Cc1ccc(CC(=O)N(C)C(c2ccccc2F)c2cncnc2C(F)(F)F)cc1 (racemic) [1-549] | – | – | – | 5 | 5 | 0 | 5 | 5 | 5 |
| CCC(c1cncnc1C(C)(C)C)N(C)C(=O)Cc1ccc(C)cc1 (racemic) [1-573] | – | – | – | 5 | 5 | 1 | 5 | 5 | 5 |
| C=CCN(C(=O)Cc1ccc(C)cc1)C(c1cncnc1C(F)(F)F)C(C)C (racemic) [1-521] | – | – | – | 5 | 5 | 1 | 5 | 5 | 5 |
| CC(C)C(c1cncnc1C(F)(F)F)N(C)C(=O)Cc1cc(F)c(F)c(F)c1 (racemic) [1-418] | – | – | – | 5 | 5 | 1 | 5 | 5 | 5 |
| C#CCN(C(=O)Cc1ccc(F)cc1)C(c1cncnc1CC)C(C)(C)C (racemic) [1-627] | – | – | – | 5 | 5 | 1 | 5 | 5 | 5 |
| COC1(C(c2cncnc2C(C)C)N(C)C(=O)Cc2ccc(C)cc2)OCCO1 (racemic) [1-604] | – | – | – | 5 | 5 | 1 | 5 | 5 | 5 |
| CC(C)C(c1cncnc1C(F)(F)F)N(C)C(=O)C(C)(C)c1ccc(Cl)cc1 (racemic) [1-329] | – | – | – | 5 | 5 | 1 | 5 | 5 | 5 |
| CN(C(=O)Cc1ccc(C(F)(F)F)cc1)C(c1ccccc1)c1cncnc1C(F)(F)F (racemic) [1-306] | – | – | – | 5 | 5 | 1 | 5 | 5 | 5 |
| CCN(C(=O)Cc1cccs1)C(c1cncnc1C(F)F)C(C)C (racemic) [2-7] | – | – | – | 5 | 5 | 1 | 5 | 5 | 5 |
| CC(C)C(c1cncnc1C(F)(F)Cl)N(C)C(=O)OCc1ccccc1 (racemic) [1-639] | – | – | – | 5 | 4 | 1 | 5 | 5 | 5 |
| CCCc1ncncc1C(CCC)N(C)C(=O)Cc1ccc(C)cc1 (racemic) [1-495] | – | – | – | 5 | 5 | 0 | 5 | 5 | 5 |
| CN(C(=O)Cc1ccc(Cl)cc1F)C(c1ccccc1)c1cncnc1C(F)(F)F (racemic) [Compound 1-250] | – | – | – | 5 | 5 | 1 | 5 | 4 | 5 |
| Cc1ccc(CC(=O)N(C)C(c2ccccc2)c2cncnc2C(F)(F)F)s1 (racemic) [2-32] | – | – | – | 5 | 5 | 1 | 5 | 5 | 5 |
| C#CCN(C(=O)Cc1ccsc1)C(c1cncnc1C(F)(F)F)C(C)C (racemic) [2-78] | – | – | – | 5 | 5 | 1 | 5 | 5 | 5 |
| CCC(c1cncnc1C(C)C)N(C)C(=O)Cc1ccc(C)cc1 (racemic) [1-439] | – | – | – | 5 | 5 | 1 | 5 | 5 | 5 |
| Cc1ccccc1C(c1cncnc1C(F)(F)F)N(C)C(=O)Cc1ccc(F)cc1 (racemic) [1-551] | – | – | – | 5 | 5 | 0 | 5 | 5 | 5 |
| COC(C)(OC)C(c1cncnc1C(C)C)N(C)C(=O)Cc1ccc(Cl)cc1 (racemic) [1-511] | – | – | – | 5 | 5 | 0 | 5 | 4 | 5 |
| CC(C)C(c1cncnc1C(F)(F)F)N(C)C(=O)Cc1cc(F)cc(F)c1F (racemic) [1-444] | – | – | – | 5 | 5 | 1 | 5 | 5 | 5 |
| CC(C)C(c1cncnc1C(F)(F)F)N(C)C(=O)Cc1ccc2ccccc2c1 (racemic) [2-1] | – | – | – | 5 | 5 | 0 | 5 | 5 | 5 |
| CN(C(=O)Cc1cccs1)C(c1cncnc1C(F)(F)F)C1(C)CC1 (racemic) [2-55] | – | – | – | 5 | 5 | 1 | 5 | 5 | 5 |
| Cc1ccc(CC(=O)N(CC#N)C(c2cncnc2C(F)(F)F)C(C)C)cc1 (racemic) [1-483] | – | – | – | 5 | 5 | 1 | 5 | 5 | 5 |
| Cc1ccc(CC(=O)N(C)C(c2ccsc2)c2cncnc2C(F)(F)F)cc1 (racemic) [1-443] | – | – | – | 5 | 5 | 1 | 5 | 5 | 5 |
